From patent US20150030561A1, “Use of CXCR4 Antagonists” (GENZYME CORP., priority 2011, published 2015)
Read-outs that look alike come from different tables or passages of the source.

Columns and labels:
[1] = tested on: patients with myelokathexis attributable to mutations of CXCR4
Description: […] intrapatient escalating dose levels, 20 mcg/kg, 40 mcg/kg, 80 mcg/kg, and 240 mcg/kg were exam in d. The subjects were patients at the University of Washington General Clinical Research Center for up to 10 days; the study requires the subject to be available for up to 14 days.
Complete blood counts were determined at 1, 3, 6, 9 and 24 hours with an automated counter and leukocyte differential counts confirmed manually. CD34^+ cells and lymphocyte subtypes were measured by FACS before and 6 hours after the 0.08 mg/kg dose.

[2] = literature (Liles 2003; DiPersio 2009); cited from earlier work

c1cc(CN2CCCNCCNCCCNCC2)ccc1CN1CCCNCCNCCCNCC1 [plerixafor]
hematocrit, hemoglobin and platelet counts ([1]; 10 day testing period, except one patient with severe iron deficiency anemia): stable | leukocyte response ([1]; all 6 patients): prompt leukocytosis | blood neutrophils 24 hours after dose ([1]; another patient, 0.24 mg/kg dose): 2e+09 L⁻¹ | fold increase, peak neutrophil response ([1]; controls (normal subjects similarly treated)): 4.4 fold | blood neutrophils 24 hours after dose ([1]; one patient, 0.16 mg/kg dose): greater than 2.0 ×10^9/L | peak blood neutrophils (group mean of highest observed values) ([1]; patient group, single s.c. doses 0.02 to 0.24 mg/kg, mean baseline 0.4±0.1×10^9/L): 4.5±0.78 ×10^9/L | absolute lymphocyte count increase from baseline to peak levels ([1]; patients): approximately 14 fold | absolute lymphocyte counts versus normal levels ([1]; patients): transiently reached normal levels | fold increase, peak neutrophil response ([1]; patients): 8.2 fold | CD34+ cells increase ([1]; patients, 0.08 mg/kg dose, FACS before and 6 hours after): ~6 fold | effect on neutropenia and lymphocytopenia ([1]; patients, s.c. single doses): transiently correct neutropenia and lymphocytopenia | effect on circulating CD34+ cells [2]: increases circulating CD34^+ cells | leukocyte effect of subcutaneous administration [2]: dose-dependent leukocytosis
